Values quoted from earlier work in US5431925A, “Nutritive composition for prevention and therapy of infection diseases caused by immunosuppression” (Snow Brand Milk Products Co., Ltd., priority 1991, dated 1995).

Details: mouse

Structure (SMILES) | LD50
CC1=C(/C=C/C(C)=C/C=C/C(C)=C/C(=O)O)C(C)(C)CCC1 [retinoic acid] | ≥ 4,000 mg/kg
CC1=C(/C=C/C(C)=C/C=C/C(C)=C/CO)C(C)(C)CCC1 [retinol] | ≥ 4,100 mg/kg
